This note sets out measurements from PubChem BioAssay (NCI).

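Assay format: 96-well plates, 48-hour exposure. Abbreviation: GI50, concentration required for 50% inhibition of growth. TGI is the concentration that stops growth completely.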 A value given as a limit tells only on which side of the number the result lay.

Among the test systems are OVCAR-8 ovarian; UACC-62 melanoma; U251 CNS; 786-0 renal; SR leukemia; UACC-257 melanoma; BT-549 breast; RXF 393 renal; M14 melanoma; KM12 colon; A498 renal.
Holding throughout (assay): NCI-60 cell line screen, 48 h

For the compound `N=C(N)n1[nH]c2c(c1=O)CCC2`, the TGI in the assay on OVCAR-8 ovarian, with UACC-62 melanoma, in the assay on U251 CNS, in the assay with 786-0 renal, in the assay with SR leukemia and in the assay with UACC-257 melanoma was greater than 100 µM throughout. Also, the TGI with BT-549 breast, in the assay on RXF 393 renal and in the assay on M14 melanoma was greater than 100 µM each time.

Consider `C[C@H](CC[C@@H](O)C(C)(C)O)[C@H]1CC[C@@]2(C)[C@@H]3CC=C4[C@@H](CC[C@H](OC5OC(CO)C(O)C(O)C5O)C4(C)C)[C@]3(C)C(=O)C[C@]12C` (some centres undefined), for which the TGI with OVCAR-8 ovarian was greater than 100 µM; in the assay on UACC-62 melanoma it was greater than 100 µM; with U251 CNS, greater than 100 µM; with 786-0 renal, 70.5 µM; in the assay on KM12 colon, greater than 100 µM; in the assay with UACC-257 melanoma it was greater than 100 µM. For the same compound, the TGI was greater than 100 µM in the assay on BT-549 breast, greater than 100 µM in the assay with RXF 393 renal, 92.1 µM in the assay on M14 melanoma and greater than 100 µM in the assay with A498 renal.

In the case of `Clc1ccc(OCC2NC3C=CC32)cn1` (centres undefined), the TGI in the assay with OVCAR-8 ovarian, in the assay on UACC-62 melanoma, in the assay with U251 CNS, in the assay with 786-0 renal, with SR leukemia and in the assay on KM12 colon was greater than 100 µM in each case. The TGI in the assay with UACC-257 melanoma, in the assay with BT-549 breast, with RXF 393 renal and in the assay with M14 melanoma was greater than 100 µM each time.

For `FC1CCN(C2(c3cccs3)CCCCC2)CC1`, the TGI in the assay on OVCAR-8 ovarian, with UACC-62 melanoma, in the assay on U251 CNS, with 786-0 renal, in the assay on KM12 colon and in the assay with UACC-257 melanoma was greater than 100 µM throughout. Further, the TGI in the assay on BT-549 breast, in the assay on RXF 393 renal, with M14 melanoma and with A498 renal was greater than 100 µM each time.

As to `O=C1CCC2=C(CCC2)N1CCc1ccc2c(c1)OCO2`, the TGI in the assay on UACC-62 melanoma, in the assay on U251 CNS, in the assay on 786-0 renal, in the assay on SR leukemia, in the assay with KM12 colon and with UACC-257 melanoma was greater than 100 µM in each case. The TGI with BT-549 breast was 85.4 µM; with RXF 393 renal it was 52.5 µM; in the assay on M14 melanoma, greater than 100 µM.

As to `CC(/C=N/NC1=NCCCCN1)=N\NC1=NCCCCN1`, the TGI in the assay on OVCAR-8 ovarian, in the assay on UACC-62 melanoma, in the assay with U251 CNS, in the assay with 786-0 renal, in the assay on SR leukemia and in the assay on KM12 colon was greater than 100 µM each time. Moreover, the TGI in the assay on UACC-257 melanoma is greater than 100 µM; in the assay with BT-549 breast it was greater than 100 µM; in the assay with RXF 393 renal it was greater than 100 µM; in the assay on M14 melanoma, 38.7 µM.

Turning to `O=C(c1ccc(Cl)cc1)N1N=C(c2ccc(Cl)cc2)CC1(O)c1cc(F)c(Cl)cc1Cl` (centres undefined), the TGI was greater than 100 µM with OVCAR-8 ovarian; 63.3 µM in the assay on UACC-62 melanoma; 37.3 µM with U251 CNS; greater than 100 µM with 786-0 renal; 21.7 µM with KM12 colon; greater than 100 µM in the assay with UACC-257 melanoma. In addition, the TGI with BT-549 breast is greater than 100 µM; with RXF 393 renal it was greater than 100 µM; in the assay with M14 melanoma it was 78.3 µM; with A498 renal, 58.6 µM.

With `O=C(NN=C1CCCCC1)Nc1ccccc1Cl`, the TGI in the assay on OVCAR-8 ovarian, in the assay on UACC-62 melanoma, in the assay on U251 CNS, in the assay on 786-0 renal, in the assay with SR leukemia and with KM12 colon was greater than 100 µM in each case. Besides, the TGI in the assay on UACC-257 melanoma, in the assay on BT-549 breast and in the assay with M14 melanoma was greater than 100 µM each time.

Regarding `CCOC(=O)/C=C(/C(=O)OCC)n1c(=O)c(C)cn(C2CC(N=[N+]=[N-])C(CO)O2)c1=O` (centres undefined), the TGI in the assay with OVCAR-8 ovarian was greater than 100 µM; in the assay on UACC-62 melanoma, greater than 100 µM; with U251 CNS, 37.4 µM; with 786-0 renal, 72 µM; in the assay on KM12 colon it was greater than 100 µM; with UACC-257 melanoma, 86.1 µM. The TGI with BT-549 breast was greater than 100 µM; in the assay on RXF 393 renal, 57.2 µM; in the assay with M14 melanoma it was greater than 100 µM; with A498 renal, greater than 100 µM.

For the compound `CN(C)CCCNC(=O)c1cc(NC(=O)c2cc(NC(=O)c3cc(NC(=O)CCCn4ccc(CO)c4CO)cn3C)cn2C)cn1C`, the TGI in the assay with UACC-62 melanoma is 37.9 µM; in the assay on U251 CNS it was greater than 100 µM; in the assay on 786-0 renal, greater than 100 µM; in the assay with SR leukemia, greater than 100 µM; in the assay with KM12 colon, greater than 100 µM; in the assay on BT-549 breast, 7.51 µM. The TGI with RXF 393 renal was 6.24 µM.

Regarding `Cc1ccc([N+](=O)[O-])cc1S(=O)(=O)Nc1ccc(C2=NN(c3ccc([N+](=O)[O-])cc3[N+](=O)[O-])C(c3ccccc3O)C2)cc1` (centres undefined), the TGI in the assay on OVCAR-8 ovarian is greater than 100 µM; in the assay on U251 CNS it was greater than 100 µM; in the assay with 786-0 renal it was greater than 100 µM; in the assay on SR leukemia, greater than 100 µM; with KM12 colon, greater than 100 µM; in the assay on UACC-257 melanoma it was 82.7 µM. The TGI in the assay on BT-549 breast, in the assay with RXF 393 renal and in the assay with M14 melanoma was greater than 100 µM each time.

In the case of `COc1ccc(N2CCN(c3ccc4c(c3)NCC(=O)N4)CC2)cc1`, the TGI with OVCAR-8 ovarian was greater than 100 µM; in the assay on UACC-62 melanoma, 56.5 µM; in the assay on U251 CNS it was 68.6 µM; in the assay with 786-0 renal, greater than 100 µM; with SR leukemia, 44.4 µM; in the assay with KM12 colon, 49 µM. In addition, the TGI in the assay on UACC-257 melanoma, with BT-549 breast and with M14 melanoma was greater than 100 µM throughout.

On to `Cc1cc(NC2=NCCO2)c2c(c1C)CCCC2`, for which the TGI in the assay with OVCAR-8 ovarian is greater than 100 µM; with UACC-62 melanoma, 41.1 µM; with U251 CNS, 63.1 µM; in the assay with 786-0 renal, 43 µM; with SR leukemia it was 75.9 µM; with KM12 colon, 33.5 µM. The TGI was 39.1 µM in the assay on UACC-257 melanoma, greater than 100 µM in the assay on RXF 393 renal, 28.1 µM with M14 melanoma and 49.8 µM with A498 renal.

Consider `NCCCn1c2c(c3ccc([N+](=O)[O-])cc3c1=O)C(=O)c1cc3c(cc1-2)OCO3`, for which the GI50 was 0.106 µM with OVCAR-8 ovarian; 0.0288 µM in the assay with UACC-62 melanoma; 0.0225 µM in the assay on SR leukemia; 0.321 µM in the assay with KM12 colon; 0.372 µM in the assay on UACC-257 melanoma; 0.164 µM in the assay with BT-549 breast. Moreover, the TGI with OVCAR-8 ovarian was 0.402 µM; in the assay with UACC-62 melanoma, 1.65 µM; in the assay on SR leukemia, greater than 100 µM; in the assay with KM12 colon it was 4.42 µM; with UACC-257 melanoma, 3 µM; in the assay with BT-549 breast it was 1.76 µM.
